# According to patent US6737425B1, “N,N-substituted cyclic amine derivatives” (Eisai Co., Ltd., priority 1998, dated 2004):
# pIC50: −log10 of the molar value. Where “and” joins values, the source holds several entries; their conditions need not be identical. Equal values may be shown once.
# Key:
# [1] = tested on: voltage-dependent calcium channels (cerebral cortex synaptosome); test: Measurement of voltage-dependent calcium channel activity by the use of a fluorescent pigment (fura 2); format: cell-based; settings: rat cerebral cortex synaptosome, fura 2, KCl stimulation, compound incubated 10 minutes
# Method in brief: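 Synaptosomes were prepared from rat cerebral cortex by sucrose homogenisation and 0.8 M sucrose gradient centrifugation. They were loaded with fura-2/AM by mixing with an equal volume of 4 μM loading solution for 40 min at room temperature. Verapamil hydrochloride served as the reference compound.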
# [2] = tested on: rat model with occlusion in the middle cerebral artery; test: Effect (I) of reducing infarct volume in a rat model with occlusion in the middle cerebral artery (2 hours occlusion); format: in vivo; settings: for Infarct volume in the cerebral cortex, Mean: from 30 minutes after occlusion, 6 hours, 2 hours occlusion, 24 hours after occlusion; for reduction of infarct volume in the cerebral cortex: vs control group
# Method: Effect (I) of Reducing Infarct Volume in a Rat Model with Occlusion in the Middle Cerebral Artery
# The compound in Example 1 was selected as the typical example of the compound of the present invention, and this sample was dissolved in 5.28% mannitol to be adjusted to a dosage of 5 or 10 mg/kg/h just before use. The concentration of the sample was calculated on the basis of the average weight of animals, as shown in the following example. The average weight was determined by measuring the weights of all animals to be used in the experiment.
# For occlusion in the middle cerebral artery, an embolus prepared from nylon yarn of 4-0 monofilament (Ethicon, Inc., Somerville, N.J., USA) was used. The end of the nylon embolus was previously rounded with flame, and it was cut into fragments of 25 mm in length, and each fragment was marked at a position 17 mm apart from the end with an oil-based felt pen.
# Implantation of a catheter for intravenous administration (Atom venous catheter 3Fr, Atom Medical Co., Ltd., Tokyo) was conducted under anesthesia with 70% laughing gas-2% halothane. The catheter filled with physiological saline was inserted through the thigh vein in the left leg.
# Occlusion in the middle cerebral artery was conducted in accordance with the method of Longa et al. (12). Just after the catheter was implanted, the operation was conducted under anesthesia with 70% laughing gas-2% halothane. A rat was allowed to lie on the back and the cervical region was cut open under a stereoscopic microscope for operation, and the part where the common carotid artery at the right side branched into the external carotid artery and the internal carotid artery was confirmed. The external carotid artery was cut at the peripheral side, and the nylon embolus was inserted through the end of the cut external carotid artery into the internal carotid artery. The embolus was inserted until the position 17 mm apart from the end of the embolus reached the point where the external carotid artery was joined to the internal carotid artery, and the embolus was fixed. To initiate blood stream again, the nylon embolus was removed 2 hours after the middle cerebral artery was occluded. […]
# Twenty four hours after the middle cerebral artery was occluded, the head was cut off from the rat and the brain was taken out. […] The sample was left at room temperature for at least 1 hour in the TTC solution and then measured for the infarct area. […]
# mice in a formalin test = test: Antalgic effect (I) on mice in a formalin test; format: in vivo; settings: for average left hind leg-licking time, Mean: formalin 5 minutes later, measured for 5 minutes
# Method: Antalgic Effect (I) on Mice in a Formalin Test
# The antalgic action of the typical example of the compound of the present invention (Example 1) when intravenously administered was examined in the formalin test using mice (3).
# ddy Mice (male, 4-week-old) purchased from Nippon SLC Ltd. were used in the experiment.
# 20.4 mg of the test compound was weighed, and 10.2 ml of 5.28% mannitol was added thereto to prepare 2 mg/ml (20 mg/kg) solution. Then, 3.8 ml of 5.28% mannitol was added to 3.8 ml of the 2 mg/ml solution to prepare 1 mg/ml (10 mg/kg) solution. Finally, 2.5 ml of 5.28% mannitol was added to 2.5 ml of the 1 mg/ml solution to prepare 0.5 mg/ml (5 mg/kg) solution. This test compound was weighed and prepared on the day when the experiment was conducted.
# 30 μl of commercial 35.0 to 38.0% formaldehyde was added to 970 μl physiological saline. The resulting solution was used as 3% formalin. Because the indicated purity of this commercial formaldehyde is 35.0 to 38.0%, the 3% formalin presently prepared and used is accurately 2.84 to 3.08% formalin.
# The treatment group in this test consisted of 4 groups in total, that is, a control group, a 5 mg/kg test compound administration group, a 10 mg/kg administration group, and a 20 mg/kg administration group, and each group consisted of 5 animals.
# The control group was given 0.1 ml of 5.28% mannitol per 10 g of the body weight. The test compound was administered at each concentration (0.5 mg/ml, 1 mg/ml, and 2 mg/ml) in an volume of 0.1 ml per 10 g of the body weight into the 5 mg/kg group, 10 mg/kg group and 20 mg/kg group, respectively.
# 5.28% mannitol was administered via the tail vein into each group given the compound of the present invention or into the control group, and the animals were placed in a transparent plastic observation cage. 5 minutes later, 20 μl of 3% formalin was subcutaneously administered into the bottom of the left hind leg of each mouse. The duration of the behavior of mouse's licking the left hind leg after administration of formalin was measured for 5 minutes and used as an indication of pain. The duration was expressed in second.
# In the significant test, parametric one-way layout analysis of variance was conducted and then Dunnet-type multiple comparison was made (*: 0.01<p<0.05, **: p<0.01, vs. the control group). For the test, a statistical analysis assistant system with SAS 6.12 (SAS Institute Japan Ltd., Tokyo) integrated in it was used.
smiles,measurement,setting,value
"CC(C)C(C#N)(CCCN1CCN(CCOc2ccc(F)cc2)CC1)c1ccccc1 (stereo not drawn) [Example 1, 1-[(4-Cyano-5-methyl-4-phenyl)hexyl]-4-[2-(4-fluorophenoxy)ethyl]piperazine]",pIC50,[1],5.23
same,"Infarct volume in the cerebral cortex, Mean",[2]; 5 mg/kg/h i.v. (table: 5 mg/kg),162.2±16.3 mm^3 and 162.17 mm^3
same,reduction of infarct volume in the cerebral cortex,[2]; 5 mg/kg/h i.v.,28%
same,"Infarct volume in the cerebral cortex, Mean",[2]; 10 mg/kg/h i.v. (table: 10 mg/kg),135.5±26.2 mm^3 and 135.50 mm^3
same,reduction of infarct volume in the cerebral cortex,[2]; 10 mg/kg/h i.v.,40%
same,"average left hind leg-licking time, Mean",mice in a formalin test; 5 mg/kg i.v. (tail vein),49.4 s
same,licking time compared to the control group,"mice in a formalin test; 5 mg/kg, 10 mg/kg and 20 mg/kg i.v.",statistically significant reduction in licking time
same,"average left hind leg-licking time, Mean",mice in a formalin test; 10 mg/kg i.v. (tail vein),23.6 s
same,"average left hind leg-licking time, Mean",mice in a formalin test; 20 mg/kg i.v. (tail vein),2.2 s
